Results on 21 molecules are retold here after patent US4820834A, “Benzodiazepine analogs” (priority 1987, dated 1989).

Like-named read-outs stand apart in the source and are kept apart here.

In general, IC50 refers to the concentration that inhibits the measured activity by half.

One assay has as its target T1, CCK receptor (pancreas) (Rattus norvegicus, UniProt P30551).
T1 construct: The whole pancreas was dissected free of fat tissue and was homogenized; from tissue; host or cells: rat pancreas membranes (Sprague-Dawley)
T1 sequence (P30551 1-444): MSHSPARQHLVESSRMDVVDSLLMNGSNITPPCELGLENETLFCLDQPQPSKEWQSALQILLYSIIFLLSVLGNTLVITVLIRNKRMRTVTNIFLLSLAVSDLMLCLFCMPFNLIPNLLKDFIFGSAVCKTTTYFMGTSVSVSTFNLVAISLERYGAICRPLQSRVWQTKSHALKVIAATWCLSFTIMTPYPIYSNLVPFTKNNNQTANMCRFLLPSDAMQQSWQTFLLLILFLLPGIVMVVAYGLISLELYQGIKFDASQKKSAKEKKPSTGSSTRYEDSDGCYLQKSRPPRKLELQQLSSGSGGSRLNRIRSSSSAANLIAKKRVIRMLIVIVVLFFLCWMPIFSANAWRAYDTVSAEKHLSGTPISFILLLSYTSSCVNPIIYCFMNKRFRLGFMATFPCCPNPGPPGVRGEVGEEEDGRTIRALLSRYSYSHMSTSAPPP
Put plainly: CCK Receptor Binding (Pancreas): inhibition of ^125 I-CCK-33 binding. Further details: species or system Male Sprague-Dawley rats. The settings on record: rat pancreas membranes, ^125 I-CCK-33, 37° C., 30 minutes. The method in brief: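 Bound ^125I-CCK-33 was counted in pellets after a 30 min, 37° C incubation followed by centrifugation. Membranes came from male Sprague-Dawley rat pancreas, assayed in Tris HCl pH 7.7 containing DTT, bacitracin, PMSF and o-phenanthroline. For Scatchard analysis, tracer was diluted with rising unlabelled CCK-33.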

Assay [1] has as its target T2, CCK receptor (brain, cerebral cortex) (Cavia porcellus, UniProt H0VZC5).
T2 construct: Cerebral cortex was dissected and used as a receptor source; from tissue; host or cells: guinea pig cerebral cortex membranes (male Hartley)
T2 sequence (H0VZC5 1-426): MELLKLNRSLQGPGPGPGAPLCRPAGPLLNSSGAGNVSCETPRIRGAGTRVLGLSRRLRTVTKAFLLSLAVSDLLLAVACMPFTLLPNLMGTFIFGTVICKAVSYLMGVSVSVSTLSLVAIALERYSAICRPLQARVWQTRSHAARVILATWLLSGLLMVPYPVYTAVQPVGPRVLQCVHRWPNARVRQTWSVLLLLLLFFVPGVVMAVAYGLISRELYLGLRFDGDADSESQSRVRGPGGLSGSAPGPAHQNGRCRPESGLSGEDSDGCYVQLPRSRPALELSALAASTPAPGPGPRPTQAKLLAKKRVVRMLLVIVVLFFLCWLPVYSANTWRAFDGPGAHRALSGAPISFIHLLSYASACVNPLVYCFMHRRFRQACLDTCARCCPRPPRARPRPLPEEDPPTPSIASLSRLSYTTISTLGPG
Put plainly: biochemical. Format: binding, Male Hartley guinea pigs. The following applies: guinea pig cerebral cortex, ^125 I-CCK-33, 25° C., 2 hours. The procedure, abridged: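 Binding of [radiolabeled] CCK-33 measured by gamma counting of centrifuged pellets after 2 h at 25°C. Membranes came from guinea pig brain cortex, suspended in 10 mM HEPES, 5 mM MgCl2, 1 mM EGTA, 0.25 mg/ml bacitracin, 0.4% BSA.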

The target of assay [2] is T3, Gastrin receptor (gastric glands) (Cavia porcellus, UniProt H0VZC5).
T3 construct: The washed guinea pig gastric glands prepared as above were resuspended; from tissue; host or cells: guinea pig gastric mucosal glands (male Hartley)
T3 sequence (H0VZC5 1-426): T2 sequence (H0VZC5 1-426)
Put plainly: Gastrin Receptor Binding in Guinea Pig Gastric Glands. The following applies: 25° C., 30 minutes. Also noted: species or system guinea pig (male Hartley).

Where [3] appears, read: read-out: IC50 ^125 I-CCK Pancreas.
Setting [4] is: IC50 ^125 I-Gastrin Gastric Glands.
The mark [5] stands for this setting: read-out: IC50 ^125 I-CCK Brain.
Setting [6] is: ^125 I-gastrin, read-out: IC50 ^125 I-Gastrin Gastric Glands.

Regarding `CN1C(=O)C(NC(=O)c2ccsc2)N=C(c2ccccc2F)c2ccccc21` (stereo not drawn) [Example 238, N-(5-(2-Fluorophenyl)-2,3-dihydro-1-methyl-2-oxo-1H-1,4-benzodiazepin-3-yl)-3-thiophenecarboxamide], the half-maximal inhibitory concentration (IC50) is 0.028 µM on CCK receptor (pancreas) (setting [3]), 26 µM in assay [1] (IC50 ^125 I-CCK Brain) and 11 µM in assay [2] (setting [4]).

Regarding `CCCCCc1ccc(C(=O)NC2N=C(c3ccccc3F)c3ccccc3N(C)C2=O)cc1` (stereo not drawn) [Example 223, N-(5-(2-Fluorophenyl)-2,3-dihydro-1-methyl-2-oxo-1H-1,4-benzodiazepin-3-yl)-4-pentylbenzamide], the IC50 at CCK receptor (pancreas) (IC50 ^125 I-CCK Pancreas) is 0.14 µM; in assay [1] (IC50 ^125 I-CCK Brain) it was more than 100 µM; in assay [2] (setting [4]) it was more than 100 µM.

`O=C(NN=C1Nc2ccccc2C(c2ccccc2F)=N[C@@H]1Cc1c[nH]c2ccccc12)c1ccsc1` [Example 35, 1,3-Dihydro-5-(2-fluorophenyl)-3(R)-(3'-indolyl)methyl-2H-1,4-benzodiazepin-2-[N'-(3-thienoyl)]hydrazide]: the results for the IC50 (on CCK receptor (pancreas) (IC50 ^125 I-CCK Pancreas); in assay [1] (IC50 ^125 I-CCK Brain); in assay [2] (setting [4])) were 10 µM, 15 µM and more than 100 µM, respectively.

As for `COc1cccc(NC(=O)NC2N=C(c3ccccc3)c3cccc(C)c3N(C)C2=O)c1` (stereo not drawn) [Example 290, N-(3-Methoxyphenyl)-N'-(2,3-dihydro-1,9-dimethyl-2-oxo-5-phenyl-1H-1,4-benzodiazepin-3-yl)-urea], the half-inhibitory concentration (IC50) at CCK receptor (pancreas) (IC50 ^125 I-CCK Pancreas) is 0.002 µM; in assay [1] (setting [5]), 0.015 µM; in assay [2] (setting [6]) it was 0.0087 µM.

With `CN1C(=O)[C@H](NC(=O)c2ccc(Br)cc2)N=C(c2ccccc2)c2ccccc21` [Example 93, 3(R)-(+)-1,3-Dihydro-3-(4-bromobenzoylamino)-1-methyl-5-phenyl-2H-1,4-benzodiazepin-2-one], the IC50 was found to be 0.7 µM at CCK receptor (pancreas) (setting [3]), 2.9 µM in assay [1] (IC50 ^125 I-CCK Brain) and 2 µM in assay [2] (setting [6]).

Take `CN1C(=O)[C@H](NC(=O)Nc2cccc(Br)c2)N=C(c2ccccc2)c2ccccc21` [Example 282, (R)-N-(2,3-Dihydro-1-methyl-2-oxo-5-phenyl-1H-1,4-benzodiazepin-3-yl)-N'-(3-bromophenyl)-urea]: the results for the IC50 (at CCK receptor (pancreas) (setting [3]); in assay [1] (IC50 ^125 I-CCK Brain); in assay [2] (setting [4])) were 0.84 µM, 0.0038 µM and 0.0016 µM, respectively.

Turning to `O=C(NC1N=C(c2ccccc2)c2ccccc2NC1=O)C1Cc2ccccc2N1` (stereo not drawn) [Example 133, 1,3-Dihydro-3-(RS)-(2-indolinecarbonylamino)-5-phenyl-2-H-1,4-benzodiazepin-2-one], the IC50 was 0.9 µM on CCK receptor (pancreas) (setting [3]), more than 40 µM in assay [1] (IC50 ^125 I-CCK Brain) and 110 µM in assay [2] (setting [4]).

For `CC(C)C(=O)N[C@H]1N=C(c2ccccc2)c2ccccc2N(C)C1=O` [Example 189, (S)-N-(2,3-Dihydro-1-methyl-2-oxo-5-phenyl-1H-1,4-benzodiazepin-3-yl)-2-methylpropanamide], the values for the IC50 (on CCK receptor (pancreas) (setting [3]); in assay [1] (IC50 ^125 I-CCK Brain); in assay [2] (setting [4])) were 1.1 µM, more than 100 µM and 73 µM, respectively.

On to `O=C(N[C@H]1N=C(c2ccccc2)c2ccccc2NC1=O)c1cc2ccccc2[nH]1` [Example 187, 3(S)-(2-Indolecarbonyl)amino-1,3-dihydro-5-phenyl-2H-1,4,-benzodiazepin-2-one], for which the IC50 on CCK receptor (pancreas) (IC50 ^125 I-CCK Pancreas) was determined as 0.003 µM; in assay [1] (IC50 ^125 I-CCK Brain) it was 1.3 µM; in assay [2] (setting [4]) it was 5.3 µM.

Consider `O=C(CN1C(=O)C(NC(=O)Nc2ccc(Cl)cc2)N=C(c2ccccc2)c2ccccc21)NCc1ccccc1` (stereo not drawn) [Example 220], for which the IC50 worked out at 2.4 µM at CCK receptor (pancreas) (setting [3]), 0.1 µM in assay [1] (setting [5]) and 0.15 µM in assay [2] (setting [6]).

Turning to `CN1C(=O)C(NC(=O)Nc2cccc(Cl)c2)N=C(c2ccccc2)c2ccccc21` (stereo not drawn) [Example 265, N-(3-Chlorophenyl)-N'-(2,3-dihydro-1-methyl-2-oxo-5-phenyl-1H-1,4-benzodiazepin-3-yl)urea], the IC50 was 0.0082 µM at CCK receptor (pancreas) (setting [3]), 0.0098 µM in assay [1] (IC50 ^125 I-CCK Brain) and 0.0031 µM in assay [2] (setting [4]).

As to `Cc1ccc(NC(=O)NC2N=C(c3ccccc3)c3ccccc3N(C)C2=O)cc1` (stereo not drawn) [Example 252, N-(2,3-Dihydro-1-methyl-2-oxo-5-phenyl-1H-1,4-benzodiazepin-3-yl)-N'-(4-methylphenyl)-urea], the results for the IC50 (on CCK receptor (pancreas) (setting [3]); in assay [1] (IC50 ^125 I-CCK Brain); in assay [2] (setting [4])) were 0.057 µM, 0.006 µM and 0.0035 µM, respectively.

Turning to `N#Cc1ccc(C(=O)NC2N=C(c3ccccc3)c3ccccc3NC2=O)cc1` (racemic) [Example 149, 3-(RS)-(4'-Cyanobenzoylamino)1,3-dihydro-5-phenyl-2H-1,4-benzodiazepin-2-one], the results for the IC50 (on CCK receptor (pancreas) (IC50 ^125 I-CCK Pancreas); in assay [1] (IC50 ^125 I-CCK Brain); in assay [2] (setting [4])) were 0.73 µM, more than 100 µM and 22 µM, respectively.

Take `CC(C(=O)O)N1C(=O)C(NC(=O)OCc2ccccc2)N=C(c2ccccc2)c2ccccc21` (stereo not drawn) [Example 243, 2,3-Dihydro-alpha-methyl-2-oxo-5-phenyl-3-((phenylmethoxy)carbonyl)amino-1H-1,4-benzodiazepine-1-acetic acid]: the IC50 at CCK receptor (pancreas) (IC50 ^125 I-CCK Pancreas) stood at 0.68 µM; in assay [1] (setting [5]) it was 2.8 µM; in assay [2] (setting [6]) it was 3.6 µM.

On to “1-(2-Cyanoethyl)-1,3-dihydro-5-(2-fluorophenyl)-3(R)-(3'-indolyl)methyl-2H- 1,4-benzodiazepin-2-one (A, 85%) and 1-(2-cyanoethyl)-1,3-dihydro-5-(2-fluorophenyl)-3(R)-[1'-(2-cyanoethyl)-3'-indolyl]-methyl-2H-1,4-benzodiazpin-2-one (B, 15%) [Example 102]”, for which the half-inhibitory concentration (IC50) on CCK receptor (pancreas) (setting [3]) turned out to be 0.7 µM; in assay [1] (setting [5]), 30 µM; in assay [2] (setting [6]), 12.8 µM.

Take `CCOC(=O)CN1C(=O)C(NC(=O)NC(C)C)N=C(c2ccccc2F)c2ccccc21` (stereo not drawn) [Example 205, 5-(2-Fluorophenyl)-2,5-dihydro-3-((((1-methylethyl)amino)carbonyl)amino)-2-oxo-1H-1,4-benzodiazepine-1-acetic acid ethyl ester]: the IC50 is 35 µM on CCK receptor (pancreas) (IC50 ^125 I-CCK Pancreas), more than 0.3 µM in assay [1] (setting [5]) and 33 µM in assay [2] (setting [6]).

Take `O=C1Nc2ccccc2C(c2ccccc2F)=N[C@@H]1CC1CNc2ccccc21` (stereo partly drawn) [Example 9]: the IC50 at CCK receptor (pancreas) (IC50 ^125 I-CCK Pancreas) was determined as 10.7 µM; in assay [1] (IC50 ^125 I-CCK Brain), 48 µM; in assay [2] (setting [6]) it was 78 µM.

As for `CN1C(=O)[C@@H](NC(=O)C2CCCCC2)N=C(c2ccccc2)c2ccccc21` [Example 191, (S)-N-(2,3-Dihydro-1-methyl-2-oxo-5-phenyl-1H-1,4-benzodiazepin-3-yl)-cyclohexanecarboxamide], the figures for the IC50 (on CCK receptor (pancreas) (setting [3]); in assay [1] (setting [5]); in assay [2] (setting [6])) were 0.8 µM, more than 100 µM and more than 100 µM, respectively.

`CN1C(=O)C(NC(=O)Nc2ccc(Br)cc2)N=C(c2ccccc2)c2ccccc21` (stereo not drawn) [Example 255]: the values for the IC50 (on CCK receptor (pancreas) (setting [3]); in assay [1] (IC50 ^125 I-CCK Brain); in assay [2] (setting [4])) were 0.13 µM, 0.048 µM and 0.032 µM, respectively.

Consider `CCN(CC)C(=O)CN1C(=O)C(NC(=O)OCc2ccccc2)N=C(c2ccccc2)c2ccccc21` (stereo not drawn) [Example 222], for which the IC50 worked out at 2.2 µM at CCK receptor (pancreas) (IC50 ^125 I-CCK Pancreas), 0.15 µM in assay [1] (setting [5]) and 0.23 µM in assay [2] (setting [6]).

For the molecule `CN1C(=O)[C@@H](NC(=O)c2ccc(Cl)cc2)N=C(c2ccccc2F)c2ccccc21` [Example 91, 3(S)-(+)-1,3-Dihydro-3-(4-chlorobenzoylamino)-5-(2-fluorophenyl)-1-methyl-2H-1,4-benzodiazepin-2-one], the values for the 50% inhibitory concentration (IC50) (at CCK receptor (pancreas) (setting [3]); in assay [1] (IC50 ^125 I-CCK Brain); in assay [2] (setting [6])) were 0.0025 µM, 2.9 µM and 0.8 µM, respectively.
